In general, IC50 refers to the concentration that gives 50% inhibition. The low end stands for greater potency, the high end for weaker potency.

This assay concerns the target T1, glucocorticoid receptor (GR) (Homo sapiens, UniProt P04150).
T1 construct: gene NR3C1
T1 sequence (P04150 1-777): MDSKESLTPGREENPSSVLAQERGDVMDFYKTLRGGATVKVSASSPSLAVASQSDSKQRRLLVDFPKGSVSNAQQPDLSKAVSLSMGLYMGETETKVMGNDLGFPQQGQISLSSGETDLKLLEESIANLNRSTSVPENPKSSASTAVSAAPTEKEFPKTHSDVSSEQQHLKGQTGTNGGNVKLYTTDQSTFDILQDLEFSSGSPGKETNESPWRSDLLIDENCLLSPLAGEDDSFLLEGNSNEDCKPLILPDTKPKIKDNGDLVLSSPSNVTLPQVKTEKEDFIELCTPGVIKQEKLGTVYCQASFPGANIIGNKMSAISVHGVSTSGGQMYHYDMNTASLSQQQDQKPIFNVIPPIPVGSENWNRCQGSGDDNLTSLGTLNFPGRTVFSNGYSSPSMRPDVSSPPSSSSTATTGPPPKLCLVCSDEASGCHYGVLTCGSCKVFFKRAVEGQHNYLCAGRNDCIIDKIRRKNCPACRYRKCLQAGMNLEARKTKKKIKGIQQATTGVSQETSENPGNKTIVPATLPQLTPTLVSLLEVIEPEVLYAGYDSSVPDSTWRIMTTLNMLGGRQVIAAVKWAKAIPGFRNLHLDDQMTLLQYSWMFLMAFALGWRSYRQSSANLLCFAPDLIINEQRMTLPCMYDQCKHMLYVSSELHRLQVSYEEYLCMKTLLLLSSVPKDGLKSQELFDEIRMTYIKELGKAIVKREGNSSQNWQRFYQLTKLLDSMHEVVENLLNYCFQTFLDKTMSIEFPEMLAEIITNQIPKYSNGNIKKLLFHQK
In words: PolarScreen GR competitor assay, fluorescence polarization displacement of Fluormone. Type of assay: binding. (In general: Fluorescence polarisation rises when a labelled molecule tumbles more slowly, as on binding a larger partner.)

The compound `CC(C)=CCC[C@](C)(O[C@@H]1O[C@H](CO[C@@H]2O[C@H](CO)[C@@H](O)[C@H](O)[C@H]2O)[C@@H](O)[C@H](O)[C@H]1O)[C@H]1CC[C@]2(C)[C@@H]1[C@H](O)C[C@@H]1[C@@]3(C)CC[C@H](O)C(C)(C)[C@@H]3CC[C@]12C` [G75, Gypenoside LXXV] displayed an IC50 of 52.8 nM.

Values taken from publication PMC6515290, “Gypenoside LXXV Promotes Cutaneous Wound Healing In Vivo by Enhancing Connective Tissue Growth Factor Levels Via the Glucocorticoid Receptor Pathway” (Molecules, 2019).
